“And” between values parts separate entries of the source, which are not always exact repeats. Equal values may be shown once.
How the values were obtained:
[1] = tested on: SR; test: NCI-60 one-dose SRB screen (Leukemia); assay type: cell-based; settings: Homo sapiens, single dose 10 µM, 48 h, read-out: Growth inhibition percent (GI %)
[2] = tested on: MOLT-4; test: NCI-60 one-dose SRB screen (Leukemia); assay type: cell-based; settings: Homo sapiens, single dose 10 µM, 48 h, read-out: Growth inhibition percent (GI %)
[3] = tested on: RPMI-8226; test: NCI-60 one-dose SRB screen (Leukemia); assay type: cell-based; settings: Homo sapiens, single dose 10 µM, 48 h, read-out: Growth inhibition percent (GI %)
[4] = tested on: HL-60(TB); test: NCI-60 one-dose SRB screen (Leukemia); assay type: cell-based; settings: Homo sapiens, single dose 10 µM, 48 h, read-out: Growth inhibition percent (GI %)
[5] = tested on: K-562; test: NCI-60 one-dose SRB screen (Leukemia); assay type: cell-based; settings: Homo sapiens, K562, single dose 10 µM, 48 h, read-out: Growth inhibition percent (GI %)
[6] = tested on: DU-145; test: NCI-60 one-dose SRB screen (Prostate Cancer); assay type: cell-based; settings: Homo sapiens, single dose 10 µM, 48 h, read-out: Growth inhibition percent (GI %)
[7] = tested on: PC-3; test: NCI-60 one-dose SRB screen (Prostate Cancer); assay type: cell-based; settings: Homo sapiens, single dose 10 µM, 48 h, read-out: Growth inhibition percent (GI %)
[8] = molecular target: hCA XII (Homo sapiens, UniProt O43570); test: CA inhibitory activity, spectrophotometric p-NPA assay; assay type: biochemical; settings: for IC50: p-NPA substrate, pH 7.5, 25 °C, triplicate, read-out: IC50 (µM) ± SD hCA XII
Method: The software used to calculate CA IC50 along with statistical analysis of the results is GraphPad Prism 9.00. Results were estimated by using one-way ANOVA and the Bonferroni’s multiple comparisons posthoc test was performed (P < 0.05) [46]
Carbonic anhydrase inhibitory activity:
The spectrophotometric assay was conducted in HEPES-Tris buffer, NaCl of pH 7.5 (20mM) at 25◦C. Each inhibitory well-consisted of 50 μL of assay buffer solution, 20 μL of hCA enzyme solution (20 ng/μL in Assay Buffer), and 50 μL of test compound in HPLC grade DMSO (maintain 10% of the final concentration). The mixture solution was
Substrate p-nitrophenyl acetate (p-NPA) (0.7mM) was prepared in HPLC grade methanol and the reaction was started by adding 20 μL to a well in a 96-well-plate. The amount of product formed was measured for 30 min continuously at 1 min intervals at 400 nm in a 96-well-plate using xMARK microplate spectrophotometer, Bio-Rad (USA). The activity of the controlled compound was taken as 100%. All experiments were carried out in triplicates of each used concentration, and results are represented as a

[9] = tested on: OVCAR-5; test: NCI-60 one-dose SRB screen (Ovarian cancer); assay type: cell-based; settings: Homo sapiens, single dose 10 µM, 48 h, read-out: Growth inhibition percent (GI %)
[10] = tested on: IGROV1; test: NCI-60 one-dose SRB screen (Ovarian cancer); assay type: cell-based; settings: Homo sapiens, IGROV-1, single dose 10 µM, 48 h, read-out: Growth inhibition percent (GI %)
[11] = tested on: OVCAR-3; test: NCI-60 one-dose SRB screen (Ovarian cancer); assay type: cell-based; settings: Homo sapiens, single dose 10 µM, 48 h, read-out: Growth inhibition percent (GI %)
[12] = tested on: OVCAR-4; test: NCI-60 one-dose SRB screen (Ovarian cancer); assay type: cell-based; settings: Homo sapiens, single dose 10 µM, 48 h, read-out: Growth inhibition percent (GI %)
[13] = tested on: NCI/ADR-RES; test: NCI-60 one-dose SRB screen (Ovarian cancer); assay type: cell-based; settings: Homo sapiens, single dose 10 µM, 48 h, read-out: Growth inhibition percent (GI %)
[14] = tested on: SK-OV-3; test: NCI-60 one-dose SRB screen (Ovarian cancer); assay type: cell-based; settings: Homo sapiens, single dose 10 µM, 48 h, read-out: Growth inhibition percent (GI %)
[15] = tested on: OVCAR-8; test: NCI-60 one-dose SRB screen (Ovarian cancer); assay type: cell-based; settings: Homo sapiens, single dose 10 µM, 48 h, read-out: Growth inhibition percent (GI %)

hCA XII, sequence (O43570 25-354): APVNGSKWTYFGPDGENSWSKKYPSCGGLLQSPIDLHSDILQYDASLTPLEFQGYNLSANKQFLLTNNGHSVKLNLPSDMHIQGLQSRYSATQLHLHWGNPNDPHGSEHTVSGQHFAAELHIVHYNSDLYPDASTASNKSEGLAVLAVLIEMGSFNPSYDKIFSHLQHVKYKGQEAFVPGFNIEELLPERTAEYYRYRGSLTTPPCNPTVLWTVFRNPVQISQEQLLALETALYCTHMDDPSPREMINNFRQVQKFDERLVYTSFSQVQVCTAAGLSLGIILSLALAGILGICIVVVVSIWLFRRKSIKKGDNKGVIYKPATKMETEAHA

Row | SMILES | melting point [°C] | inhibition at 10 µM [1] [%] | inhibition at 10 µM [2] [%] | inhibition at 10 µM [3] [%] | inhibition at 10 µM [4] [%] | inhibition at 10 µM [5] [%] | inhibition at 10 µM [6] [%] | inhibition at 10 µM [7] [%] | IC50 [8] | inhibition at 10 µM [9] [%] | inhibition at 10 µM [10] [%] | inhibition at 10 µM [11] [%] | inhibition at 10 µM [12] [%] | inhibition at 10 µM [13] [%] | inhibition at 10 µM [14] [%] | inhibition at 10 µM [15] [%] | Ki [8] [nM]
1 | CCOC(=O)c1ccc(NC(=O)COC(=O)c2cn(-c3ccc(S(N)(=O)=O)cc3)nc2-c2ccc(OC)cc2)cc1 [Compound 5c, 2-[(4-(Ethoxycarbonyl)phenyl)amino]-2-oxoethyl 3-(4-methoxyphenyl)-1-(4-sulfamoylphenyl)-1H-pyrazole-4-carboxylate] | 121 to 124 | 64.6 | 65.9 | 58.6 | 48.4 | 61.7 | 14.7 | 50.9 | 0.27 µM and 0.272 µM | 13.7 | < 5 | 23.2 | 42.5 | < 5 | 11.6 | 5.25 | –
2 | Cc1ccc(-c2nn(-c3ccc(S(N)(=O)=O)cc3)cc2-c2n[nH]c(=S)[nH]2)cc1 [Compound 11, 4-[4-(5-Mercapto-1H-1,2,4-triazol-3-yl)-3-(p-tolyl)-1H-pyrazol-1-yl] benzenesulfonamide] | 255 to 257 | 15.8 | 21.1 | < 5 | < 5 | < 5 | < 5 | < 5 | 0.33 µM and 0.332 µM | < 5 | < 5 | 11.4 | 10.1 | < 5 | < 5 | < 5 | –
3 | NC(=S)NNC(=O)c1cn(-c2ccc(S(N)(=O)=O)cc2)nc1-c1ccc(Br)cc1 [Compound 9d, 2-[3-(4-Bromophenyl)-1-(4-sulfamoylphenyl)-1H-pyrazole-4-carbonyl] hydrazine-1-carbothioamide] | 238 to 241 | 6.97 | < 5 | < 5 | < 5 | < 5 | < 5 | < 5 | 1.42 ± 0.053 µM | < 5 | 20.2 | < 5 | < 5 | < 5 | < 5 | < 5 | –
4 | COc1ccc(-c2nn(-c3ccc(S(N)(=O)=O)cc3)cc2C(=O)OCC(=O)Nc2nnc(S(N)(=O)=O)s2)cc1 [Compound 6c, 2-Oxo-2-[(5-sulfamoyl-1,3,4-thiadiazol-2-yl)amino] ethyl 3-(4-methoxyphenyl)-1-(4-sulfamoylphenyl)-1H-pyrazole-4-carboxylate] | 240 to 241 | < 5 | < 5 | < 5 | < 5 | < 5 | < 5 | < 5 | 0.09 µM and 0.095 µM | < 5 | < 5 | < 5 | < 5 | < 5 | < 5 | < 5 | 95
5 | NC(=S)NNC(=O)c1cn(-c2ccc(S(N)(=O)=O)cc2)nc1-c1ccccc1 [Compound 9a, 2-[3-Phenyl-1-(4-sulfamoylphenyl)-1H-pyrazole-4-carbonyl] hydrazine-1-carbothioamide] | 180 to 181 | < 5 | < 5 | < 5 | < 5 | < 5 | < 5 | < 5 | 0.605 ± 0.023 µM | < 5 | < 5 | < 5 | < 5 | < 5 | < 5 | < 5 | –
6 | NS(=O)(=O)c1ccc(-n2cc(C(=O)OCC(=O)Nc3nnc(S(N)(=O)=O)s3)c(-c3ccccc3)n2)cc1 [Compound 6a, 2-Oxo-2-[(5-sulfamoyl-1,3,4-thiadiazol-2-yl)amino] ethyl 3-phenyl-1-(4-sulfamoylphenyl)-1H-pyrazole-4-carboxylate] | 135 to 137 | 17 | < 5 | < 5 | < 5 | < 5 | < 5 | < 5 | 0.35 µM and 0.358 µM | < 5 | < 5 | < 5 | < 5 | < 5 | 54.6 | < 5 | –
7 | CCOC(=O)c1ccc(NC(=O)COC(=O)c2cn(-c3ccc(S(N)(=O)=O)cc3)nc2-c2ccc(S(C)(=O)=O)cc2)cc1 [Compound 5e, 2-[(4-(Ethoxycarbonyl)phenyl)amino]-2-oxoethyl 3-(4-(methylsulfonyl)phenyl)-1-(4-sulfamoylphenyl)-1H-pyrazole-4-carboxylate] | 127 to 130 | 22.1 | < 5 | 6.03 | 6.26 | 9.58 | < 5 | < 5 | 0.16 µM and 0.167 µM | 7.15 | < 5 | < 5 | 12.3 | < 5 | < 5 | < 5 | –
